Assay results published in patent publication EP0989125B1, “Pesticidal furylmethyl cyclopropanecarboxylates” (Sumitomo Chemical Company, Limited, priority 1998, dated 2000).

Tests used:
[1] = tested on: brown planthopper (Nilaparvata lugens); experiment: Biological test 2: rice plant stalk dipped in emulsion; type: in vivo; conditions: Nilaparvata lugens, 144 h; 500 ppm aqueous emulsion, larvae, after 6 days
Method: A stalk of a rice plant was dipped for one minute in a 500 ppm aqueous emulsion obtained by diluting each emulsifiable concentrate of the present compounds prepared according to the formulation example 1. The rice plant stalk was air-dried and placed in a polyethylene cup (diameter : 5.5 cm) where filter paper (diameter : 5.5 cm) impregnated with 1 ml of water was put. Approximately 30 larvae of brown planthopper (Nilaparvata lugens) were put in the polyethylene cup. After 6 days, the mortality of the larvae was examined.

[2] = tested on: common mosquitoes (Culex pipiens pallens); experiment: Biological test 6: mosquito larvae in treated water; type: in vivo; conditions: Culex pipiens, 24 h; 3.5 ppm active ingredient in water, last-instar larvae, after one day
Method: 0.7 ml of aqueous emulsion, obtained by diluting emulsifiable concentrate prepared for each of the present compounds according to the formulation example 1 was added to 100 ml of ion-exchanged water (concentration of active ingredient : 3.5 ppm). Twenty last-instar larvae of common mosquitoes (Culex pipiens pallens) were left in the water. After one day, the mortality of the common mosquitoes was examined.

[3] = tested on: common mosquitoes (Culex pipiens pallens); experiment: Biological test 7: oil solution sprayed in glass chamber, knock-down; type: in vivo; conditions: 0.7 ml of 0.1 % oil solution sprayed, 0.34 m^3 chamber, after 15 minutes
Method: Ten female common mosquitoes (Culex pipiens pallens) were left in a glass chamber (70 cm × 70 cm × 70 cm : 0.34 m^3). 0.7 ml of 0.1 % oil solution prepared for each of the present compounds according to the formulation example 7 was sprayed with a spray gun at 0.8 atmospheric pressure. After 15 minutes, the rate of knocked-down mosquitoes was examined.

[4] = tested on: common mosquitoes (Culex pipiens pallens); experiment: Biological test 8: mosquito-coil in glass chamber, knock-down; type: in vivo; conditions: 1.0 g of 0.3 % mosquito-coil, 0.34 m^3 chamber, after 15 minutes
Method: Mosquito-coil containing the present compound in an amount of 0.3 % was prepared according to the formulation example 10 for the present compounds. Ten female common mosquitoes (Culex pipiens pallens) were left in a glass chamber (70 cm × 70 cm × 70 cm : 0.34 m^3) and 1.0 g of 0.3 % mosquito-coil having both ends lit was placed in the glass chamber. After 15 minutes, the rate of knocked-down mosquitoes was examined.

[5] = tested on: houseflies (Musca domestica); experiment: Biological test 9: topical application of acetone solution to houseflies; type: in vivo; conditions: 5 µg / one housefly, after 24 hours
Method: After 24 hours, the percent moribund was examined (two replicate).

[6] = tested on: houseflies (Musca domestica); experiment: Biological test 10: vapour exposure over treated aluminum plate, houseflies; type: in vivo; conditions: 0.64 ml of 0.05 (w/v) % acetone solution, no direct contact, 25 °C for 120 minutes, after 24 hours
Method: (§1) After 0.64 ml of a 0.05 (w/v) % acetone solution of the present compounds was dropped into an aluminum plate (bottom diameter : 7 cm), acetone was air-dried. Ten female houseflies (Musca domestica) were left in a polyethylene cup (diameter : 9 cm; depth : 4.5 cm) and the cup was sealed with a 16-mesh nylon net to prevent direct contact of the houseflies with the compound. The cup was placed upside down on the aluminum plate at 25 °C for 120 minutes. The cup was then removed from the aluminum plate, and water and feed were given to the houseflies. After 24 hours, the percent moribund was examined (two replicate).

[7] = tested on: common mosquitoes (Culex pipiens pallens); experiment: Biological test 11: vapour exposure over treated aluminum plate, mosquitoes; type: in vivo; conditions: Culex pipiens, 24 h
Method: as §1, with “common mosquitoes (Culex pipiens pallens)” for “houseflies (Musca domestica)”, “mosquitoes” for “houseflies”, “mosquitoes.” for “houseflies.”, “mortality” for “percent moribund”

[8] = tested on: webbing clothes moth (Tineola bisselliella); experiment: Biological test 12: topical application to webbing clothes moth larvae; type: in vivo; conditions: 3 µg / insect, after 7 days
Method: Each of the present compounds diluted with acetone to a predetermined concentration was applied to ten middle instar larvae of webbing clothes moth (Tineola bisselliella) at the central part of the back so as to give the active ingredient in a dose of 3 µg / insect. A wool muslin fabric (2 cm × 2 cm in size) was given to the webbing clothes moths as the food. After 7 days, the mortality and the degree of damage of the wool muslin fabric by the moths were examined (two replicate).

[9] = tested on: webbing clothes moth (Tineola bisselliella); experiment: Biological test 13: volatile agent hung in cup with webbing clothes moth larvae; type: in vivo; conditions: volatile agent (100 µg on filter paper), 25 °C for 1 week
Method: A wool muslin fabric (2 cm × 2 cm in size) was placed on the bottom of a polyethylene cup (bottom diameter : 10 cm, opening part diameter : 12.5 cm, height : 9.5 cm, volume : 950 cm^3 ). Ten middle instar larvae of webbing clothes moth (Tineola bisselliella) were put in the cup and each of the volatile agents prepared according to the formulation example 14 was hung from the cap in the interior of the cup. After standing at 25 °C for 1 week, the cup was opened, and the mortality and the degree of damage of the wool muslin fabric by the moths were examined (two replicate).

[10] = tested on: webbing clothes moth (Tineola bisselliella); experiment: Biological test 14: persistence of treated filter paper in cardboard box, webbing clothes moth larvae; type: in vivo; set-up: key to degree of damage: -: no damage; +: slight damage; ++: heavy damage; +++: severe damage; conditions: 36 mg on filter paper
Method: A filter paper (3.2 cm × 3.2 cm in size) treated with 36 mg of each of the present compounds and two wool muslin fabrics (25 cm × 25 cm in size) were hung down at the upper part of a corrugated cardboard box (29 cm × 29 cm × 29 cm in size). After standing at 25 °C and a humidity of 60 % for 1 week, two tea-strainer balls holding 7 to 10 middle instar larvae of webbing clothes moth (Tineola bisselliella) and one piece of wool muslin cloth (2 cm × 2 cm in size) were hung down at the upper part of the box. The box was closed with a lid. After one week, the box was opened, and the percent moribund and the degree of damage of the wool muslin cloth by the moths were examined. The same tests was repeated 2 weeks, 3 weeks and 5 weeks after the treatment to examine the persistance of the present compound. The degree of damage was represented by "-" in no damage, " + " in slight damage, " ++ " in heavy damage and "+++ " in severe damage.

[11] = tested on: rats; conditions: male 7-week old rats, into the stomach in corn oil, after 7 days
Method: After subjecting the rats to a twenty-hour fasting, 0.1 ml of the diluted solution per 10g weight was forcibly applied into the stomach of four male 7-week old rats. The rats were given food and water four hours after the application and thereafter regularly fed and watered, and kept in a cage. After 7 days, the mortality was examined for the rats and LD50 was calculated.

[12] = tested on: tobacco cutworm (Spodoptera litura); experiment: Biological test 1: artificial bait impregnated with emulsion; conditions: Spodoptera litura, in Nicotiana tabacum, 144 h
[13] = tested on: southern corn rootworm (Diabrotica undecimpunctata howardi); experiment: Biological test 3: treated filter paper with eggs and sprouting corn; conditions: Diabrotica undecimpunctata, in Zea mays, 192 h, read-out: mortality of the hatched larvae and eggs
[14] = tested on: German cockroaches (Blattella germanica); experiment: Biological test 5: treated filter paper with sucrose bait, cockroaches low sensitive to pyrethroids; conditions: Blattella germanica, 144 h

How did the mortality at 500 ppm [1] turn out when Cc1ccc(COC(=O)[C@@H]2[C@H](/C=C(\Cl)C(F)(F)F)C2(C)C)o1 (racemic) [present compound (1), 5-methyl-2-furfuryl (1RS,cis)-3-(Z-2-chloro-3,3,3-trifluoroprop-1-enyl)-2,2-dimethylcyclopropanecarboxylate] was run?
The mortality at 500 ppm was at least 90%.

What about the mortality at 3.5 ppm [2] of the same compound?
Its mortality at 3.5 ppm is at least 90%.

And the “rate of knocked-down mosquitoes” value [3]?
The value was at least 90%.

What about the “rate of knocked-down mosquitoes” value [4] of the same compound?
The value was 100%.

What about the percent moribund [5] of the same compound?
The percent moribund was 100%.

And the percent moribund [6]?
Its percent moribund is 100%.

And the mortality at 500 µg/mL [7]?
The mortality at 500 µg/mL was 100%.

And the “degree of damage of the wool muslin fabric” value [8]?
The value was “no damage”.

What about the mortality at 0.003 mg ([8]; Tineola bisselliella, 168 h) of the same compound?
Its mortality at 0.003 mg is 100%.

And the mortality at 0.1 mg ([9]; Tineola bisselliella, 168 h)?
The mortality at 0.1 mg was 100%.

And the “degree of damage of the wool muslin fabric” value [9]?
Its value is “no damage”.

What about the degree of damage ([10]; After 1 week) of the same compound?
Its degree of damage is “-”.

What about the percent moribund ([10]; After 1 week) of the same compound?
Its percent moribund is 100%.

And the degree of damage ([10]; After 2 weeks)?
Its degree of damage is “-”.

What about the percent moribund ([10]; After 2 weeks) of the same compound?
The percent moribund was 100%.

And the degree of damage ([10]; After 3 weeks)?
Its degree of damage is “-”.

What about the percent moribund ([10]; After 3 weeks) of the same compound?
The percent moribund was 100%.

And the degree of damage ([10]; After 5 weeks)?
Its degree of damage is “-”.

And the percent moribund ([10]; After 5 weeks)?
The percent moribund was 100%.

And the LD50 [11]?
Its LD50 is 300 mg/kg.

And the mortality at 500 µg/mL [12]?
The mortality at 500 µg/mL was 100%.

What about the mortality at 50 ppm [13] of the same compound?
Its mortality at 50 ppm is 100%.

And the mortality at 500 ppm [14]?
The mortality at 500 ppm was 100%.
